Measured values from patent publication US6518036B1, “Method of permanent fluorescent assay” (Nen Life Science Products, Inc., priority 1999, dated 2003).

Key:
[1] = biological target: Horseradish peroxidase (HRP) conjugated wheat germ agglutinin (Armoracia rusticana, UniProt P00433); conditions: mouse intestine section
Procedure: Sections of paraffin-embedded mouse intestine were deparaffinized, and non-specific binding sites were blocked by treatment for thirty minutes in PBS-blocking buffer (PBS-BB) (0.1 M phosphate buffered saline, pH 7.2; 1.0% bovine serum albumin, 0.2% non-fat powdered milk; and 0.3% Triton X-100). Horseradish peroxidase (HRP) conjugated wheat germ agglutinin (Sigma; St. Louis, Mo.) at a concentration of 10 μg/ml in PBS-BB was incubated on the sections for one hour at room temperature. Sections were then washed in PBS (three×five minutes each wash) and Tris (0.1 M Tris, pH 8.5; three×three minutes each wash). N-(5-hydroxypentyl)-3-(p-hydroxyphenyl) propionamide (HHPA), 1 mg/ml in Tris containing 0.003% H2O2, was then added to the sections at room temperature for ten minutes. Sections were then washed in Tris (three×three minutes each wash) and mounted with Tris:Glycerol (1:1) and coverslipped. Sections were viewed with a Zeiss Axioskop microscope equipped with epifluorescence and filter sets with excitation/emission characteristics of 360 nm/>400 nm (blue-white fluorescence); 490 nm/520 nm (green fluorescence); and 550 nm/570 nm (red fluorescence). Sections were photographed with a Zeiss MC100 camera system.
Wheat germ agglutinin binds to N-acetylglucosamine residues present in abundance in intestinal mucin producing goblet cells. […] The microscopic field was then illuminated for one minute at 360 nm and reexamined as described above. […] Original magnifications 400×.

[2] = Fluorescent signal stability under continuous excitation (automatic exposure time, ASA 1600); type: physicochemical; conditions: mouse brain section
Procedure: Sections of paraffin-embedded mouse brain were deparaffinized and non-specific binding sites were blocked by treatment for thirty minutes in PBS-BB. Monoclonal antibody against microtubule associated protein-2 (Sigma) was diluted 1:100,000 in PBS-BB and incubated on the sections overnight at 4° C. Sections were then washed in PBS (three×five minutes each wash) and incubated at room temperature for one hour with HRP-conjugated donkey anti-mouse antibodies (Jackson Immunoresearch Laboratories; West Grove, Pa.) diluted 1:1000 in PBS-BB. […]
The fluorescein labeled section was viewed with a filter set having excitation/emission peaks at 490 nm/520 nm. […] Photomicrographs using standard two second exposures were taken at both time points to assess changes in fluorescence intensity over time. In addition, fluorescence intensity was semi-quantitated at both time points by recording the automatic exposure time required for photomicrographic documentation in a standard field using an ASA setting of 1600 and the MC100 camera system (Zeiss). Using this measure, short exposure times correlate with bright-fluorescence and long exposure times with dim fluorescence.

Sequence of Horseradish peroxidase (HRP) conjugated wheat germ agglutinin (P00433 31-338 limits assumed): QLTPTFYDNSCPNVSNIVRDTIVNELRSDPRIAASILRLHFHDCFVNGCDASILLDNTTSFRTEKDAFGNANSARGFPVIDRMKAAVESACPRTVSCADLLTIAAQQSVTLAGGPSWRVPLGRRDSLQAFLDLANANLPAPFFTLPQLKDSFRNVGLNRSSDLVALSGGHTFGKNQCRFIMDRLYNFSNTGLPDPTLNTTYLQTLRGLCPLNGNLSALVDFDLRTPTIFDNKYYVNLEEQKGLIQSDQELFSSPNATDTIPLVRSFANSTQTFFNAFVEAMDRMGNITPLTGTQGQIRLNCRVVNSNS

Structure (SMILES): O=C(CCc1ccc(O)cc1)NCCCCCO [HHPA, N-(5-hydroxypentyl)-3-(p-hydroxyphenyl) propionamide]
- fluorescence signal, blue-white filter set ([1]; 360 nm excitation, before one minute illumination at 360 nm): weak fluorescence signal
- fluorescent signal, all three filter sets (blue-white, green, red) ([1]; after one minute illumination at 360 nm, localized to goblet cells): Intense fluorescent signals
- fluorescence signal, green or red filter sets ([1]; before one minute illumination at 360 nm): almost no signal
- time required for a standard ASA 1600 exposure ([2]; after fifteen minutes of continuous excitation): 3.1 s
- time required for a standard ASA 1600 exposure ([2]; time zero, short exposure = bright fluorescence): 4.1 s
